Test results from US20250026741A1, “INHIBITORS OF THE ONCOGENIC SHP2 PHOSPHATASE AND USES THEREOF” (Sanford Burnham Prebys Medical Discovery Institute, priority 2021, published 2025).

Legend:
SHP2-E76K = SHP2-E76K (Homo sapiens (Human), UniProt Q06124, E76K); experiment: Michaelis-Menten kinetics and mode of inhibition; type: biochemical
Method: Using nonlinear regression, initial rates at various inhibitor and substrate concentrations were fitted to the Michaelis-Menten equations for competitive, noncompetitive, uncompetitive, and mixed inhibition. Fitting models were then compared using Akaike's Information Criterion (AIC), and inhibition mode probabilities were calculated from the differences between the corresponding second-order corrected AIC scores.
#02 was tested with SHP2-E76K using a similar assay format as described above. #02 or vehicle (DMSO) were spotted in triplicate into a black Greiner FLUOTRAC™ 200 384-well microplate (#781076, Greiner) using an Echo 555 Liquid Handler (Labcyte, Inc., San Jose, CA). SHP2-E76K working solution was prepared and dispensed as described above and incubated with inhibitor for 20 min at RT. DiFMUP working solutions at 5×final concentration were prepared in 50 mM Bis-Tris pH 6.0, 50 mMNaCl, and 0.01% Tween 20. […] Fluorescence intensity was measured in kinetic mode as described above. The initial rates were determined from the linear progression curves of each SHP2-E76K reaction. […] For a comparison of the fitting results, the second-order corrected Akaike's Information Criterion (AICc) was calculated using equation 1, where N is the number of data points, SS the absolute sum of squares, and K the number of parameters fit by nonlinear regression plus 1.

SHP2cat = SHP2cat (Homo sapiens (Human), UniProt Q06124); experiment: Protein thermal shift (PTS) assay; type: binding; conditions: vs vehicle (DMSO) control
Text: We confirmed specific and dose-dependent binding of inhibitors to SHP2 by protein thermal shift, which monitors the thermal stability of a target protein in vitro. […] In addition, we confirmed the inhibitory activity of several furanylbenzamide inhibitors, including the top two compounds #02 and #01, in SHP2cat inhibition assays using the alternative substrate 3-O-methylfluorescein phosphate (OMFP), which features a peak fluorescence emission that is red-shifted by […] compared to DiFMUP. The Km value of OMFP for SHP2cat was determined to be 50 μM. An OMFP fluorescence intensity-based assay was used to perform inhibitor dose-response experiments and determine IC50 values.
Differential scanning fluorimetry (also known as protein thermal shift) measurements of SHP2cat were performed. #02 was spotted at different concentrations into MicroAmp®384-well real-time PCR plates (#4483285, Applied Biosystems, Waltham, MA) using an Echo 555 Liquid Handler. […] Plates were analyzed using a ViiA® 7 Real-Time PCR instrument (Applied Biosystems, Waltham, MA) and a 12 min temperature gradient with a temperature increase of 0.075° C./s. The melting temperature and thermal profiles were determined using Protein Thermal Shift™ Software v1.3 (Applied Biosystems, Waltham, MA).

[1] = tested on: p-ERK1/2 in MOLM-13 AML cells; experiment: Phospho-ERK1/2 immunoblot analysis, MOLM-13; type: cell-based; conditions: #02 3, 10, 30 μM, RMC-4550 1 μM
Method: Because SHP2 activity is critical for ERK activation, we used phospho-ERK1/2 (p-ERK1/2) as a more direct readout of SHP2 inhibitor efficacy. […] However, a greater effect of #02 was observed after 24 h treatment. […] This p-ERK rebound in MOLM-13 cells treated with RMC-4550 is reminiscent of previously reported data from human hepatoma Hep3B cells treated with SHP099.
Total protein extracts were prepared in modified RIPA lysis buffer (25 mM Tris-HCl, pH 7.4, 10% glycerol, 0.2% Triton™ X-100, 150 mM NaCl, 2 mM Na3VO4, 1 mM EDTA) containing a protease inhibitor cocktail (Roche Applied Science, Indianapolis, IN). Equal amounts of protein were separated on 4-12% (p-ERK1/2 blots) or 4-20% (SHP2 blots) Bis-Tris gels by SDS-PAGE and transferred to nitrocellulose (p-ERK1/2 blots) or 0.2 μm PVDF (SHP2 blots) membranes. Membranes were blocked in 5% dry milk (Bio-Rad, Hercules, CA) in TBS-Tween 20 (0.1% vol/vol; TBS-T) for 1 h at room temperature. Protein-bound membranes were incubated with indicated primary antibody overnight at 4° C. After washing three times with TBS-T, membranes were incubated for 1 h with horseradish peroxidase-conjugated secondary antibody, then visualized by an ECL Prime detection system (GE Healthcare). Immunoblotting experiments were carried out at least three times and representative images are shown. Densitometric quantitation of immunoblots was performed using Image Studio Lite Software. Changes of phosphorylated ERK1/2 to total ERK1/2 rations are expressed as percentage of the vehicle-treated controls. The following antibodies were used: Phospho-Erk1/2 Ab, Cell Signaling, #9101S; total Erk1/2 Ab, Cell Signaling, #9102S; SHP2 Ab, Bethyl, A301-544A, lot #1; GAPDH (14C10) mAb, Cell Signaling, #2118S, lot #14.

[2] = tested on: p-ERK1/2 in U-937 AML cells (SHP2 G60R); experiment: Phospho-ERK1/2 immunoblot analysis, U-937; type: cell-based; conditions: U-937, 24 h; #02 1, 3, 10, 30 μM; RMC-4550 1 μM
Text: Oncogenic gain-of-function mutations in SHP2 drive leukemogenesis in a significant number of leukemia patients. However, due to their unique mechanism of action, the existing SHP2 allosteric inhibitors lack activity against the most common SHP2 oncogenic variants. Thus, we tested whether #02 can inhibit the growth of leukemia cells expressing oncogenic SHP2 variants. […] Using the U-937 AML cell line, which harbors a G60R oncogenic mutation in SHP2, we treated cells with either #02 or RMC-4550 at various concentrations, ranging from 0.123 to 30 μM (FIG. 4A). […] We also assessed the effects of #02 and RMC-4550 on ERK1/2 activation in the SHP2 mutant U-937 cell line. Similar to the immunoblot experiments described above, U-937 AML cells were treated with either vehicle control (DMSO), #02 (1, 3, 10, or 30 μM), or with RMC-4550 (1 μM) for 24 h and processed for p-ERK1/2 immunoblot analysis (FIG. 4B).
Total protein extracts were prepared in modified RIPA lysis buffer (25 mM Tris-HCl, pH 7.4, 10% glycerol, 0.2% Triton™ X-100, 150 mM NaCl, 2 mM Na3VO4, 1 mM EDTA) containing a protease inhibitor cocktail (Roche Applied Science, Indianapolis, IN). […] Densitometric quantitation of immunoblots was performed using Image Studio Lite Software. Changes of phosphorylated ERK1/2 to total ERK1/2 rations are expressed as percentage of the vehicle-treated controls. […]

Sequence of SHP2-E76K (Q06124 whole entry E76K): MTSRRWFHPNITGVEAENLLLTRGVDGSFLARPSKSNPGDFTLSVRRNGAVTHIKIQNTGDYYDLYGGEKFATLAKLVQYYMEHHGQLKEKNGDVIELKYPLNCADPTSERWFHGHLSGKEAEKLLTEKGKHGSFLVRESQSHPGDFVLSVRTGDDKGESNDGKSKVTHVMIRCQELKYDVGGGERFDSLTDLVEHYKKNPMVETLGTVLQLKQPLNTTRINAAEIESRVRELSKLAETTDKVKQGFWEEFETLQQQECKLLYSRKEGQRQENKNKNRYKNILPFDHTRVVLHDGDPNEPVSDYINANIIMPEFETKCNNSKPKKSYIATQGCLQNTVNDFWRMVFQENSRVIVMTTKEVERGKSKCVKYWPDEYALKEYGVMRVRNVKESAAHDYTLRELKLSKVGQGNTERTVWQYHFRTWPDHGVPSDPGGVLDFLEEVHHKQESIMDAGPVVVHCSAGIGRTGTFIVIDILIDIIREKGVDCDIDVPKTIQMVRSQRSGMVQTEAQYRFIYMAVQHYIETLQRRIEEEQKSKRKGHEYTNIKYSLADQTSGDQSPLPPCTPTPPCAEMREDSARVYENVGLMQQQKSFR
Sequence of SHP2cat (Q06124 248-527): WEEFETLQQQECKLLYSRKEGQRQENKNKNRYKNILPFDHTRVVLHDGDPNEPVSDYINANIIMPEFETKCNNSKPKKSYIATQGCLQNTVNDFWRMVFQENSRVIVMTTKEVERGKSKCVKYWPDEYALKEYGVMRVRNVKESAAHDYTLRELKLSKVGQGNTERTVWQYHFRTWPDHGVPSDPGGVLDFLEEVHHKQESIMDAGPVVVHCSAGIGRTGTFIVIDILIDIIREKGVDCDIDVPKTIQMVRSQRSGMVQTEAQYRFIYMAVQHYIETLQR

## O=C(Nc1ccccc1)c1cc(-c2ccc(/C=C3\Sc4ccccc4C3=O)o2)ccc1O [#02, (Z)-2-hydroxy-5-(5-((3-oxobenzo[b]thiophen-2(3H)-ylidene)methyl)furan-2-yl)-N-phenylbenzamide]
SHP2-E76K; AIC model comparison
  mode of inhibition: noncompetitive or mixed inhibition mechanism
SHP2-E76K; DiFMUP substrate, read-out: inhibition constant (Ki) for noncompetitive inhibition
  Ki: 1800 nM
SHP2cat
  change of SHP2cat melting temperature (Tm): dose-dependently increased the melting temperature
[1]; MOLM-13, 3 h treatment
  ERK1/2 activation (p-ERK1/2 levels): dose-dependently inhibits ERK1/2 activation
[1]; MOLM-13, 24 h treatment
  ERK1/2 activation (p-ERK1/2 levels): dose-dependently inhibits ERK1/2 activation
[2]
  ERK1/2 activation (p-ERK1/2 levels): dose-dependently inhibited ERK1/2 activation
